Results reported in patent publication US8309739B2, “Chemical compounds” (Syngenta Limited, priority 2005, dated 2012).
Where two headings read alike, the source gives them in different places.

How the values were obtained:
[1] = system: Myzus persicae (Green Peach Aphid); test: Myzus persicae test, roots of infested pea seedlings placed in test solution; assay type: in vivo; conditions: 144 h, read-out: control of Myzus persicae
Source text: Myzus persicae (Green Peach Aphid):
Roots of pea seedlings, infested with an aphid population of mixed ages, were placed directly in the test solutions of 24 ppm. 6 days after introduction, samples were checked for mortality.

[2] = system: Heliothis virescens (Tobacco Budworm); test: Heliothis virescens egg/larva test on artificial diet in 24-well microtiter plate; assay type: in vivo; conditions: 96 h, 200 ppm by pipetting on eggs (0-24 h old) on artificial diet, 4 days, egg mortality, larval mortality, growth regulation
Source text: Heliothis virescens (Tobacco Budworm):

[3] = roots of infested pea seedlings in test solutions of 24 ppm, 6 days, mortality

| melting point [°C] | SMILES | pest or weed control at 200 ppm [2] [%] | other results |
| --- | --- | --- | --- |
| 136 | Fc1ccc2c(c1)CCC2NC1=NCCS1 (stereo not shown) |  |  |
| 181 | Cc1ccc2c(c1)C(NC1=NCCS1)CC2 (stereo not shown) |  |  |
| 191 | Oc1cccc2c1CCC2NC1=NCCS1 (stereo not shown) |  |  |
| 161 | Fc1ccc2c(c1F)CCC2NC1=NCCS1 (stereo not shown) |  |  |
| 60 to 66 | CC1(C)CC(NC2=NCCS2)c2ccccc21 (stereo not shown) |  |  |
| 152 to 153 | COc1cc2c(cc1C)CCC2NC1=NCCS1 (stereo not shown) |  |  |
| 165 | Fc1c(F)c(F)c2c(c1F)CCC2NC1=NCCS1 (stereo not shown) |  |  |
| 148 to 149 | CCc1cc(F)c2c(c1)C(NC1=NCCS1)CC2 (stereo not shown) |  |  |
| 131 | COC(=O)c1cccc2c1CCC2NC1=NCCS1 (stereo not shown) |  |  |
| 170 to 171 | Ic1cccc2c1CCC2NC1=NCCS1 (stereo not shown) |  |  |
| 142 to 143 | O=Cc1cccc2c1CCC2NC1=NCCS1 (stereo not shown) |  |  |
|  | Cc1cccc2c1CCC2NC1=NCCS1 (stereo not shown) [Compound 2.006, (4,5-Dihydro-thiazol-2-yl)-(4-methyl-indan-1-yl)-amine] |  | pest or weed control at 24 ppm [1]: ≥ 80% |
|  | Fc1cccc2c1CCC2NC1=NCCS1 (stereo not shown) [Compound 2.019] | ≥ 80 | pest or weed control at 24 ppm [1, 3]: ≥ 80% |
|  | Clc1cccc2c1CCC2NC1=NCCS1 (stereo not shown) [Compound 2.020] | ≥ 80 |  |
|  | Fc1cc(F)c2c(c1)C(NC1=NCCS1)CC2 (stereo not shown) [Compound 2.024] | ≥ 80 | pest or weed control at 24 ppm [1, 3]: ≥ 80% |
|  | Fc1ccc(F)c2c1CCC2NC1=NCCS1 (stereo not shown) [Compound 2.025] | ≥ 80 | pest or weed control at 24 ppm [1, 3]: ≥ 80% |
|  | Fc1cc(Br)cc2c1CCC2NC1=NCCS1 (stereo not shown) [Compound 2.026] | ≥ 80 |  |
|  | Fc1cc2c(c(F)c1F)CCC2NC1=NCCS1 (stereo not shown) [Compound 2.028] | ≥ 80 |  |
|  | Fc1cc(F)c2c(c1F)C(NC1=NCCS1)CC2 (stereo not shown) [Compound 2.030] | ≥ 80 | pest or weed control at 24 ppm [1, 3]: ≥ 80% |
|  | Cc1cc(F)c2c(c1)C(NC1=NCCS1)CC2 (stereo not shown) [Compound 2.031] | ≥ 80 | pest or weed control at 24 ppm [1, 3]: ≥ 80% |

| melting point [°C] | SMILES | pest or weed control at 200 ppm [2] [%] | other results |
| --- | --- | --- | --- |
| 101 to 103 | CCCC1(CCC)Cc2ccccc2C1NC1=NCCS1 (stereo not shown) [Compound 2.034] |  |  |
| 143 to 146 | c1ccc(Oc2cccc3c2CCC3NC2=NCCS2)cc1 (stereo not shown) [Compound 2.041] |  |  |
| 144 to 145 | O=[N+]([O-])c1cccc2c1CCC2NC1=NCCS1 (stereo not shown) [Compound 2.042] |  |  |
|  | Brc1ccc2c(c1)C(NC1=NCCS1)CC2 (stereo not shown) [Compound 2.049] | ≥ 80 |  |
|  | Fc1cccc2c1C(NC1=NCCS1)CC2 (stereo not shown) [Compound 2.052] | ≥ 80 |  |
|  | FC(F)c1cccc2c1CCC2NC1=NCCS1 (stereo not shown) [Compound 2.058] | ≥ 80 | pest or weed control at 24 ppm [1, 3]: ≥ 80% |
|  | Fc1cccc2c1CC(F)C2NC1=NCCS1 (stereo not shown) [Compound 2.067] | ≥ 80 | pest or weed control at 24 ppm [1, 3]: ≥ 80% |
| 115 to 117 | ON(C1=NCCS1)C1CCc2c(Cl)cccc21 (stereo not shown) [Compound 7.001] |  |  |
| 63 to 64 | CC(C)(C)OC(=O)NN(C1=NCCS1)C1CCc2ccccc21 (stereo not shown) [Compound 7.002] |  |  |
| 91 to 92 | CC(=O)N(C(C)=O)N(C1=NCCS1)C1CCc2ccccc21 (stereo not shown) [Compound 7.004] |  |  |
|  | ON(C1=NCCS1)C1CCc2c(F)cccc21 (stereo not shown) [Compound 7.006] |  | pest or weed control at 24 ppm [1, 3]: ≥ 80% |
|  | Cc1cccc2c1CCC2N(O)C1=NCCS1 (stereo not shown) [Compound 7.010] | ≥ 80 |  |
| 103 to 105 | NN(C1=NCCS1)C1CCc2ccccc21 (stereo not shown) [Compound 7.013] |  |  |
|  | N#CN1CCSC1=NC1CCc2ccccc21 (stereo not shown) [Compound 8.017, 2-(Indan-1-ylimino)-thiazolidine-3-carbonitrile] | ≥ 80 |  |
|  | CC(C)C(=O)N1CCS/C1=N\C1CCc2ccccc21 (stereo not shown) [Compound 10.006] |  | pest or weed control at 24 ppm [1, 3]: ≥ 80% |
|  | CCC(=O)N1CCS/C1=N\C1CCc2ccccc21 (stereo not shown) [Compound 10.011] | ≥ 80 | pest or weed control at 24 ppm [1, 3]: ≥ 80% |
|  | COC(=O)N1CCS/C1=N\C1CCc2ccccc21 (stereo not shown) [Compound 10.015] | ≥ 80 | pest or weed control at 24 ppm [1, 3]: ≥ 80% |
|  | CCOC(=O)N1CCS/C1=N\C1CCc2ccccc21 (stereo not shown) [Compound 10.020] | ≥ 80 |  |
|  | CC(=O)N1CCS/C1=N\C1CCc2ccccc21 (stereo not shown) [Compound 10.025] | ≥ 80 |  |
|  | CC(=O)OC1Cc2ccccc2C1NC1=NCCS1 (stereo not shown) [Compound 12.008] | ≥ 80 |  |
